Laboratory results published in patent US20260132129A1 (Genesis Therapeutics, Inc., priority 2022, published 2026).
Structures can show the parent of a compound that is named as a salt.

Molecular target: T1, PI3Kα H1047R (T47D cells) (Homo sapiens, UniProt P42336, H1047R)
T1 construct: endogenous in cells; host or cells: T47D cells
Test: PI3Kα cellular assay: pAKT HTRF in T47D cells after EGF stimulation
Assay type: cell-based
Settings: for IC50: T47D cells (PI3Kα H1047R), pAKT S473 HTRF, 1 hr compound, 20 ng/ml EGF 10 min
Outline: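 pAKT read by HTRF in lysates of EGF-stimulated (20 ng/mL, 10 min) T47D H1047R cells. Before stimulation, serum-starved cells (16 h) received compound for 1 h at 37 °C, dosed from 10,000 nM down to 0.5 nM in 3-fold steps.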

T1 sequence (P42336 whole entry H1047R): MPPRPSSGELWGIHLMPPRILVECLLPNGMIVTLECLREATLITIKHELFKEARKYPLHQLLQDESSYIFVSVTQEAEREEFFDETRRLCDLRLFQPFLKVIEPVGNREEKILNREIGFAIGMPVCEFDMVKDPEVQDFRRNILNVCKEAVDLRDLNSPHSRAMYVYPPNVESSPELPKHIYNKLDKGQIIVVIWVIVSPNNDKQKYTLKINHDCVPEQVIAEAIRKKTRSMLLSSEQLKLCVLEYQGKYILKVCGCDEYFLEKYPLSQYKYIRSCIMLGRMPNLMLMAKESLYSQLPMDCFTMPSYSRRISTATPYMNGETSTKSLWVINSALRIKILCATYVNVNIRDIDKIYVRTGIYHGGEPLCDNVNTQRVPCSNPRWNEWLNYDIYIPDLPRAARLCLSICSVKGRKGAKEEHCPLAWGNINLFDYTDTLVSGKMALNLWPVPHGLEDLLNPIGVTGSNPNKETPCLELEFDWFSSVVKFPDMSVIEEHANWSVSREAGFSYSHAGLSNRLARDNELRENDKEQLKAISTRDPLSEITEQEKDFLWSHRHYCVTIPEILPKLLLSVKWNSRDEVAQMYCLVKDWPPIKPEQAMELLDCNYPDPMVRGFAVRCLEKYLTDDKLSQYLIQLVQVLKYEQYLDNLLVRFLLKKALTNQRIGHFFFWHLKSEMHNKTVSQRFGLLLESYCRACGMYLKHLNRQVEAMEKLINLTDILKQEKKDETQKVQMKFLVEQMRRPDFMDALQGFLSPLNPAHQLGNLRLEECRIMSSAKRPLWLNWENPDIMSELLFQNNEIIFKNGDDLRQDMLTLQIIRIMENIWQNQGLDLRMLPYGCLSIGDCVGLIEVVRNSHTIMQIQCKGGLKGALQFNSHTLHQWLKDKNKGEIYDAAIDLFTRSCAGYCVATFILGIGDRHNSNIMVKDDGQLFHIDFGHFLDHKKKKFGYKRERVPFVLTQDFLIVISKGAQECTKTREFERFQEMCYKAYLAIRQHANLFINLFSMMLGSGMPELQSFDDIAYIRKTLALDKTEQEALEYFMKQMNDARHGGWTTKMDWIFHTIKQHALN
T1 sequence (P27986 whole entry partner): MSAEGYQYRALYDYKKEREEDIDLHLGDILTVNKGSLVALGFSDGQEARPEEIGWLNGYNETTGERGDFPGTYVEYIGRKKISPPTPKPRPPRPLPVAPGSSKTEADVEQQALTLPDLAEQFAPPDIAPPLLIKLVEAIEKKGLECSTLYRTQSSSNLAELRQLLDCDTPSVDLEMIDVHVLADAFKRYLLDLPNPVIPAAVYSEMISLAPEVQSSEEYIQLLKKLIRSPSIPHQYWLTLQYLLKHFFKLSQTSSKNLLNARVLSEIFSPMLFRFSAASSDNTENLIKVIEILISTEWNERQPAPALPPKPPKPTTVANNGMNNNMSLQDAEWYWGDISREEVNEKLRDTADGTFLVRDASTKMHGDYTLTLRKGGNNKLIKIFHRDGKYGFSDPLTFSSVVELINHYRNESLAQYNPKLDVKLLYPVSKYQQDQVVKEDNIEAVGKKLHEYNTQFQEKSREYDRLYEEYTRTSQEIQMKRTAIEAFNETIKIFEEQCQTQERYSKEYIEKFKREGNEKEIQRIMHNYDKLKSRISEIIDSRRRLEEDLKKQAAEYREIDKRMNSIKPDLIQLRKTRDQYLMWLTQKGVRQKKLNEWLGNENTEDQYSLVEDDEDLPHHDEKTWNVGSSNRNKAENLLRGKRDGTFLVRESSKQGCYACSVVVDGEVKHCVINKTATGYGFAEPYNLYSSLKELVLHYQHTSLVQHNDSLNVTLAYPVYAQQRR

Compound | IC50 [nM] | T47D pAKT S473 HTRF IC50 (H1047R): T47D (H1047R) selectivity over SKBR3 (WT)
Cc1cc([C@@H](C)Nc2ccnnc2C(=O)O)c2nc(N3CCOCC3)cc(=O)n2c1 [Compound 377] | > 2000 | C (C denotes ≤5-fold)
Cc1cc([C@H](C)Nc2ccnnc2C(=O)O)c2nc(N3CCOCC3)cc(=O)n2c1 [Compound 378] | > 2000 | C (C denotes ≤5-fold)
Cc1cc(C(C)Nc2c(C(=O)O)cnn2C)c2nc(N3CCOCC3)cc(=O)n2c1 (stereo not shown) [Compound 379] | > 2000 | C (C denotes ≤5-fold)
Cc1cc(C(C)Nc2ccccc2C(=O)O)c2nc(-c3cc[nH]c(=O)c3)cc(=O)n2c1 (stereo not shown) [Compound 380] | > 2000 | C (C denotes ≤5-fold)
Cc1cc([C@@H](C)Nc2c(C(=O)O)cnn2C)c2nc(N3CCOCC3)cc(=O)n2c1 [Compound 390] | > 2000 | C (C denotes ≤5-fold)
Cc1cc([C@@H](C)Nc2ccccc2C(=O)O)c2nc(N3CCN(C)CC3)cc(=O)n2c1 [Compound 394] | > 2000 | C (C denotes ≤5-fold)
Cc1cc([C@H](C)Nc2ccccc2C(=O)O)c2nc(N3Cc4ccccc4C3)cc(=O)n2c1 [Compound 403] | > 2000 | C (C denotes ≤5-fold)
Cc1cc([C@@H](C)Nc2ccccc2C(=O)O)c2nc(N3CC[Si](C)(C)CC3)cc(=O)n2c1 [Compound 446] | > 2000 | C (C denotes ≤5-fold)

Now from value to compound:

IC50 [nM] | T47D pAKT S473 HTRF IC50 (H1047R): T47D (H1047R) selectivity over SKBR3 (WT) | Compound
100 to 500 | A (A denotes >20-fold) | Cc1cc(C(C)Nc2ccccc2C(=O)O)c2nc(-c3cccnc3)cc(=O)n2c1 (stereo not shown) [Compound 416, 2-((1-(7-methyl-4-oxo-2-(pyridin-3-yl)-4H-pyrido[1,2-a]pyrimidin-9-yl)ethyl)amino)benzoic acid trifluoroacetate]
– | C (C denotes ≤5-fold) | Cc1cc([C@H](C)Nc2ccccc2C(=O)O)c2nc(-c3ccccc3)cc(=O)n2c1 [Compound 423]
– | C (C denotes ≤5-fold) | Cc1cc([C@H](C)Nc2ccccc2C(=O)O)c2nc(N3CCC(C)(C)CC3)cc(=O)n2c1 [Compound 432]
– | C (C denotes ≤5-fold) | Cc1cc(C(C)Nc2ccccc2C(=O)O)c2nc(N3CCC(NS(C)(=O)=O)CC3)cc(=O)n2c1 (stereo not shown) [Compound 433]
– | C (C denotes ≤5-fold) | Cc1cc(C(C)Nc2ccccc2C(=O)O)c2nc(N3CCC(NS(C)(=O)=O)CC3)cc(=O)n2c1 (stereo not shown) [Compound 434]
> 2000 | C (C denotes ≤5-fold) | Cc1cc(C(C)Nc2ccccc2C(N)=O)c2nc(-c3ccncc3)cc(=O)n2c1 (stereo not shown) [Compound 438]
< 100 | A (A denotes >20-fold) | Cc1cc(C(C)Nc2ccccc2C(=O)O)c2nc(-c3ccc4c(c3)c(N(C)C)nn4C)cc(=O)n2c1 (stereo not shown) [Compound 457]
500 to 2000 | B (B denotes 20-fold≥value>5-fold) | Cc1cc(C(C)Nc2ccccc2C(=O)O)c2nc(-c3ccnnc3)cc(=O)n2c1 (stereo not shown) [Compound 460]
> 2000 | C (C denotes ≤5-fold) | Cc1cc([C@@H](C)Nc2ccccc2C(=O)O)c2nc(-c3cc[nH]c(=O)c3)cc(=O)n2c1 [Compound 461]
> 2000 | C (C denotes ≤5-fold) | Cc1cc([C@H](C)Nc2ccccc2C(=O)O)c2nc(-c3cc[nH]c(=O)c3)cc(=O)n2c1 [Compound 462]
> 2000 | C (C denotes ≤5-fold) | Cc1cc(C(C)Nc2ccccc2C(=O)O)c2nc(-c3ccc4c(c3)NC(CO)N4)cc(=O)n2c1 (stereo not shown) [Compound 466]
